{"source": "patent EP0164635A2", "about": "“Imidazothiazolemethylene-acetohydrazide derivatives, preparation thereof and pharmaceutical composition having diuretic activity” (MEDIOLANUM FARMACEUTICI s.r.l., priority 1984, dated 1985)", "key": {"rats": {"tested_on": "rats", "experiment": "Diuretic activity: urinary sodium excretion over 6 hours after oral administration", "format": "in vivo, rat", "conditions": "rat, sodium urinary excretion in 6 h vs controls (control = 100), read-out: Diuretic effect %; for response vs control in vivo at 20 mg/kg: dose 20 mg/kg oral; for response vs control in vivo at 10 mg/kg: dose 10 mg/kg oral", "procedure": "The first series of tests was carried out to rats orally administered with distilled water (25 ml/kg) containing the product under test, previously suspended in Tween 80 (1% v/v with respect to water). Urina of the 6 hours following the treatment was collected in order to measure the sodium concentration, by means of atomic absorption. The ratio of the meq/100 g of body weight of the treated animals to the corresponding ratio of the meq/100 g of body weight of the control animals (treated with the sole vehicle) was calculated, in order to determine the dose of the test compound doubling or trebling or anyway increasing the sodium excretion."}, "in vivo": {"experiment": "in vivo", "conditions": "rat"}, "rat [1]": {"tested_on": "rat", "experiment": "Excreted urinary volumes after oral administration, with a second water load after 0-3 h", "format": "in vivo", "procedure": "(§1) The compounds were administered by the oral route, under the same conditions as described in the previous test, but the animals, after the O-3 hours interval, were treated with further 25 ml/kg of distilled water, by intubation."}, "rat [2]": {"tested_on": "rat", "experiment": "Excreted urinary electrolytes after oral administration, with a second water load after 0-3 h", "format": "in vivo", "procedure": "as §1"}}}
{"smiles": "NCC(=O)NN=Cc1c(-c2ccccc2)nc2sccn12", "note": "[Example 14]", "values": [{"measurement": "response vs control in vivo at 20 mg/kg", "setting": "rats", "result": 130, "unit": "%"}, {"measurement": "LD50", "setting": "in vivo; po", "result": "> 1000", "unit": "mg/kg"}]}
{"smiles": "Cc1csc2nc(-c3ccccc3)c(C=NNC(=O)CN(C)C)n12", "note": "[Example 7]", "values": [{"measurement": "response vs control in vivo at 0.5 mg/kg", "setting": "rats; dose 0.5 mg/kg oral", "result": 250, "unit": "%"}, {"measurement": "LD50", "setting": "in vivo; ip", "result": "> 3000", "unit": "mg/kg"}, {"measurement": "LD50", "setting": "in vivo; po", "result": "> 3000", "unit": "mg/kg"}, {"measurement": "EXCRETED URINARY VOLUMES WITH RESPECT TO BODY WEIGHT", "setting": "rat [1]; 2.5 mg/kg, 0-3 h", "result": 0.0333, "unit": "L/kg"}, {"measurement": "EXCRETED URINARY VOLUMES WITH RESPECT TO BODY WEIGHT", "setting": "rat [1]; 2.5 mg/kg, 0-6 h", "result": 0.0469, "unit": "L/kg"}, {"measurement": "EXCRETED URINARY VOLUMES WITH RESPECT TO BODY WEIGHT", "setting": "rat [1]; 2.5 mg/kg, 3-6 h", "result": 0.0136, "unit": "L/kg"}, {"measurement": "EXCRETED URINARY VOLUMES WITH RESPECT TO BODY WEIGHT", "setting": "rat [1]; 10 mg/kg, 0-3 h", "result": 0.0326, "unit": "L/kg"}, {"measurement": "EXCRETED URINARY VOLUMES WITH RESPECT TO BODY WEIGHT", "setting": "rat [1]; 10 mg/kg, 0-6 h", "result": 0.0474, "unit": "L/kg"}, {"measurement": "EXCRETED URINARY VOLUMES WITH RESPECT TO BODY WEIGHT", "setting": "rat [1]; 10 mg/kg, 3-6 h", "result": 0.0147, "unit": "L/kg"}, {"measurement": "EXCRETED URINARY ELECTROLYTES WITH RESPECT TO BODY WEIGHT, Cl^-", "setting": "rat [2]; 10 mg/kg, 0-3 h", "result": 2.55, "unit": "mEq/kg"}, {"measurement": "EXCRETED URINARY ELECTROLYTES WITH RESPECT TO BODY WEIGHT, K^+", "setting": "rat [2]; 10 mg/kg, 0-3 h", "result": 1.04, "unit": "mEq/kg"}, {"measurement": "EXCRETED URINARY ELECTROLYTES WITH RESPECT TO BODY WEIGHT, Na^+", "setting": "rat [2]; 10 mg/kg, 0-3 h", "result": 2.55, "unit": "mEq/kg"}, {"measurement": "EXCRETED URINARY ELECTROLYTES WITH RESPECT TO BODY WEIGHT, Cl^-", "setting": "rat [2]; 10 mg/kg, 0-6 h", "result": 2.57, "unit": "mEq/kg"}, {"measurement": "EXCRETED URINARY ELECTROLYTES WITH RESPECT TO BODY WEIGHT, K^+", "setting": "rat [2]; 10 mg/kg, 0-6 h", "result": 1.29, "unit": "mEq/kg"}, {"measurement": "EXCRETED URINARY ELECTROLYTES WITH RESPECT TO BODY WEIGHT, Na^+", "setting": "rat [2]; 10 mg/kg, 0-6 h", "result": 2.71, "unit": "mEq/kg"}, {"measurement": "EXCRETED URINARY ELECTROLYTES WITH RESPECT TO BODY WEIGHT, Cl^-", "setting": "rat [2]; 10 mg/kg, 3-6 h", "result": 0.025, "unit": "mEq/kg"}, {"measurement": "EXCRETED URINARY ELECTROLYTES WITH RESPECT TO BODY WEIGHT, K^+", "setting": "rat [2]; 10 mg/kg, 3-6 h", "result": 0.25, "unit": "mEq/kg"}, {"measurement": "EXCRETED URINARY ELECTROLYTES WITH RESPECT TO BODY WEIGHT, Na^+", "setting": "rat [2]; 10 mg/kg, 3-6 h", "result": 0.16, "unit": "mEq/kg"}, {"measurement": "EXCRETED URINARY ELECTROLYTES WITH RESPECT TO BODY WEIGHT, Cl^-", "setting": "rat [2]; head prints 10 mg/kg, 0-3 h", "result": 1.53, "unit": "mEq/kg"}, {"measurement": "EXCRETED URINARY ELECTROLYTES WITH RESPECT TO BODY WEIGHT, K^+", "setting": "rat [2]; head prints 10 mg/kg, 0-3 h", "result": 0.93, "unit": "mEq/kg"}, {"measurement": "EXCRETED URINARY ELECTROLYTES WITH RESPECT TO BODY WEIGHT, Na^+", "setting": "rat [2]; head prints 10 mg/kg, 0-3 h", "result": 2.03, "unit": "mEq/kg"}, {"measurement": "EXCRETED URINARY ELECTROLYTES WITH RESPECT TO BODY WEIGHT, Cl^-", "setting": "rat [2]; head prints 10 mg/kg, 0-6 h", "result": 1.53, "unit": "mEq/kg"}, {"measurement": "EXCRETED URINARY ELECTROLYTES WITH RESPECT TO BODY WEIGHT, K^+", "setting": "rat [2]; head prints 10 mg/kg, 0-6 h", "result": 1.26, "unit": "mEq/kg"}, {"measurement": "EXCRETED URINARY ELECTROLYTES WITH RESPECT TO BODY WEIGHT, Na^+", "setting": "rat [2]; head prints 10 mg/kg, 0-6 h", "result": 2.17, "unit": "mEq/kg"}, {"measurement": "EXCRETED URINARY ELECTROLYTES WITH RESPECT TO BODY WEIGHT, Cl^-", "setting": "rat [2]; head prints 10 mg/kg, 3-6 h", "result": 0.0, "unit": "mEq/kg"}, {"measurement": "EXCRETED URINARY ELECTROLYTES WITH RESPECT TO BODY WEIGHT, K^+", "setting": "rat [2]; head prints 10 mg/kg, 3-6 h", "result": 0.33, "unit": "mEq/kg"}, {"measurement": "EXCRETED URINARY ELECTROLYTES WITH RESPECT TO BODY WEIGHT, Na^+", "setting": "rat [2]; head prints 10 mg/kg, 3-6 h", "result": 0.14, "unit": "mEq/kg"}]}
{"smiles": "Cc1nc2n(c1C=NNC(=O)CN(C)C)CCS2", "note": "[Example 10]", "values": [{"measurement": "LD50", "setting": "in vivo; ip", "result": "> 1000", "unit": "mg/kg"}, {"measurement": "LD50", "setting": "in vivo; po", "result": "> 1000", "unit": "mg/kg"}]}
{"smiles": "CN(C)CC(=O)NN=Cc1c(-c2ccccc2)nc2n1CCS2", "note": "[Example 9]", "values": [{"measurement": "response vs control in vivo at 10 mg/kg", "setting": "rats", "result": 230, "unit": "%"}, {"measurement": "LD50", "setting": "in vivo; ip", "result": "> 1000", "unit": "mg/kg"}, {"measurement": "LD50", "setting": "in vivo; po", "result": "> 3000", "unit": "mg/kg"}]}
{"smiles": "Cc1cn2c(C=NNC(=O)CN(C)C)c(C)nc2s1", "note": "[Example 6, N,N-dimethylamino-acetyl-[[2-methyl-6-methyl-imidazo[2,1-a]thiazole-5-yl]methylene]-hydrazide]", "values": [{"measurement": "response vs control in vivo at 10 mg/kg", "setting": "rats", "result": 180, "unit": "%"}, {"measurement": "LD50", "setting": "in vivo; ip", "result": "~600", "unit": "mg/kg"}, {"measurement": "LD50", "setting": "in vivo; po", "result": "~1000", "unit": "mg/kg"}]}
{"smiles": "CN(C)CC(=O)NN=Cc1c(Cl)nc2sccn12", "note": "[Example 1]", "values": [{"measurement": "response vs control in vivo at 20 mg/kg", "setting": "rats", "result": 120, "unit": "%"}, {"measurement": "LD50", "setting": "in vivo; ip", "result": "~250", "unit": "mg/kg"}, {"measurement": "LD50", "setting": "in vivo; po", "result": "~1500", "unit": "mg/kg"}]}
{"smiles": "CN(C)CC(=O)NN=Cc1c(-c2ccccc2)nc2sccn12", "note": "[Example 3]", "values": [{"measurement": "response vs control in vivo at 5 mg/kg", "setting": "rats; dose 5 mg/kg oral", "result": 310, "unit": "%"}, {"measurement": "LD50", "setting": "in vivo; ip", "result": "~600", "unit": "mg/kg"}, {"measurement": "LD50", "setting": "in vivo; po", "result": "~600", "unit": "mg/kg"}]}
{"smiles": "Cc1ccc(-c2nc3n(c2C=NNC(=O)CN(C)C)CCS3)cc1", "note": "[Example 12]", "values": [{"measurement": "response vs control in vivo at 20 mg/kg", "setting": "rats", "result": 120, "unit": "%"}, {"measurement": "LD50", "setting": "in vivo; ip", "result": "~600", "unit": "mg/kg"}, {"measurement": "LD50", "setting": "in vivo; po", "result": "~800", "unit": "mg/kg"}]}
